Tests used:
recombinant human TYRO3 = molecular target: T1, recombinant human TYRO3 (Homo sapiens, UniProt Q06418); test: HTRF KinEASE-TK biochemical potency, TYRO3; conditions: 1 nM TYRO3, 700 μM ATP
T1 construct: purchased Invitrogen
T1 sequence (Q06418 41-890): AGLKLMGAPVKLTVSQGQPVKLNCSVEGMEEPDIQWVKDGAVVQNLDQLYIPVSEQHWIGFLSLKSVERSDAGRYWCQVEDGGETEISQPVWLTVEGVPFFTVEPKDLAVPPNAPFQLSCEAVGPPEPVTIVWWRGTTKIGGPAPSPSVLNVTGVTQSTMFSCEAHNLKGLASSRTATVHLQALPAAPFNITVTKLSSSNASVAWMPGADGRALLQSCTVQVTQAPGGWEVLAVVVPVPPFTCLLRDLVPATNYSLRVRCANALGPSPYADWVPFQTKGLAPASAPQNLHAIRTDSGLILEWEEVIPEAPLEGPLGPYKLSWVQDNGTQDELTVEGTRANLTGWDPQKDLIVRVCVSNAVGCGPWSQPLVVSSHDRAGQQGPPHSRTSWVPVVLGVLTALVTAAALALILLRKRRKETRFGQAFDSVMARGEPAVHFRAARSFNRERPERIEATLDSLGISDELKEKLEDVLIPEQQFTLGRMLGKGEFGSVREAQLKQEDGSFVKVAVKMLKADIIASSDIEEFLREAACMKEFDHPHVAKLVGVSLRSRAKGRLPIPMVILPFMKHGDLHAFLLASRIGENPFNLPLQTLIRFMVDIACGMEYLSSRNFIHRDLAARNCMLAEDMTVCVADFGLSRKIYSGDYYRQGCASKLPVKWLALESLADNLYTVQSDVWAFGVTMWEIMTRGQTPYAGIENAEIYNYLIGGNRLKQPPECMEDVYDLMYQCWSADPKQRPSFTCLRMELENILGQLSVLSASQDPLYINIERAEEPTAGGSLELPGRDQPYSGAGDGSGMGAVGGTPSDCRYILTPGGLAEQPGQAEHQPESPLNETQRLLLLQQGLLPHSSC
Description: (§1) Purified recombinant human AXL, TYRO3 and MER proteins were purchased from Invitrogen™. 10 nM AXL, 2 nM TYRO3 or MER were incubated with varying concentrations of compounds in 50 mM HEPES, pH 7.4, 10 mM MgCl2, 0.01% BSA, 1 mM DTT and 2% DMSO in a total volume of 20 μl in a 384-well microplate (Corning™ #3640) at RT for 1 h. The AXL, TYRO3 and MER enzymatic reaction was initiated by transferring 10 μl of enzyme and compound mixture into 10 μl of 1.6 μM TK Substrate-biotin (HTRF® KinEASE-TK kit, Cisbio) and 1400 μM ATP pre-incubated in 50 mM HEPES, pH 7.4, 10 mM MgCl2, 0.01% BSA, 1 mM DTT in a 384-well microplate (Corning™ #3640) at RT, giving the final reaction conditions: 5 nM AXL, 1 nM TYRO3 or MER, 800 nM TK Substrate-biotin and 700 μM ATP in 50 mM HEPES, pH 7.4, 10 mM MgCl2, 0.01% BSA, 1 mM DTT and 1% DMSO with varying concentrations of compounds. Following 2 h incubation at RT, the AXL, TYRO3 and MER enzymatic reaction was stopped by transfer of 10 μl of reaction into 10 μl of detection mix (400 nM Streptavidin-XL665, 200-fold dilution TK Antibody-Cryptate and detection buffer, HTRF® KinEASE-TK kit, Cisbio) in a white 384-well microplate (Perkin Elmer, OptiPlate 384). After 1 h incubation at RT, the plate was put into a plate reader (Evision) to read at 665/620 nm (acceptor/donor) for HTRF. The value of the DMSO blank (MIN inhibition=100% activity) was used as a negative control. The positive control was established by adding 5 μl of enzyme and DMSO mixture into 10 μl of detection mix followed by addition of 5 μl of TK Substrate-biotin and ATP mixture (MAX inhibition=0% activity). To calculate the percent activity, Equation 1 was used. Ratio665/620 is the value at a given compound concentration: […]

Axl = molecular target: T2, Axl (Homo sapiens, UniProt P30530); test: HTRF KinEASE-TK biochemical potency, AXL; set-up: purchased Invitrogen; conditions: 5 nM AXL, 700 μM ATP
T2 sequence (P30530 26-894): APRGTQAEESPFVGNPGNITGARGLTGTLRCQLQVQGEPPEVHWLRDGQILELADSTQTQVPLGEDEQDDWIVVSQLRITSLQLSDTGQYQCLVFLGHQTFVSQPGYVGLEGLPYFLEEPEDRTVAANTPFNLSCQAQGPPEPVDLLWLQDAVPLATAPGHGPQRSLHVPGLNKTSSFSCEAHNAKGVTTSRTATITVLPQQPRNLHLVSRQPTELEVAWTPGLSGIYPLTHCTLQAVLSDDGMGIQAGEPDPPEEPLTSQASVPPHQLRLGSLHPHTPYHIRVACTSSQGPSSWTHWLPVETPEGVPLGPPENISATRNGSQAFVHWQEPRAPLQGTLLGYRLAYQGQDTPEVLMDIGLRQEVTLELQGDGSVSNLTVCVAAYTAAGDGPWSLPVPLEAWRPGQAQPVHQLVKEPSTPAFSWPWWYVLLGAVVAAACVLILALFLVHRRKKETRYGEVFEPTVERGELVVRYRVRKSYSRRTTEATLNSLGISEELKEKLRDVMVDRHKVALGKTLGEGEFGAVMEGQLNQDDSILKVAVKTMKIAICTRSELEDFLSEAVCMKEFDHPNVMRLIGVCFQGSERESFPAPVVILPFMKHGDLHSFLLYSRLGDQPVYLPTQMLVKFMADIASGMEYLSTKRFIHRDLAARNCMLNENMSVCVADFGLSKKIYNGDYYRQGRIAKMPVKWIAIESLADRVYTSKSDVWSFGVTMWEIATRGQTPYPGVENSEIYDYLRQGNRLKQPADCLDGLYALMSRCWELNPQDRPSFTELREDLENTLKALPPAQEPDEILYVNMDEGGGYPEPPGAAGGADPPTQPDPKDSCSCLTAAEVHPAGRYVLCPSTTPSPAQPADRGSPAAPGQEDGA
Description: as §1

Structure (SMILES) | IC50 (recombinant human TYRO3) | IC50 (Axl)
O=C1NCCOc2cc(-c3n[nH]c4ncc(-c5ccc6c(n5)CCC(N5CCCC5)CC6)cc34)ccc21 (stereo not drawn) [Example 63, 8-{5-[7-(Pyrrolidin-1-yl)-5H,6H,7H,8H,9H-cyclohepta[b]pyridin-2-yl]-1H-pyrazolo[3,4-b]pyridin-3-yl}-2,3,4,5-tetrahydro-1,4-benzoxazepin-5-one] | < 100 nM | < 100 nM
O=C1NCCOc2cc(-c3n[nH]c4ncc(-c5ccc6c(c5)CNCC6)cc34)ccc21 [Example 55, 8-(5-(1,2,3,4-Tetrahydroisoquinolin-7-yl)-1H-pyrazolo[3,4-b]pyridin-3-yl)-3,4-dihydrobenzo[f][1,4]oxazepin-5(2H)-one] | < 100 nM | < 100 nM
O=C1NCCOc2cc(-c3n[nH]c4ncc(-c5ccc6c(c5)CCC(N5CCC[C@H]5CO)CC6)cc34)ccc21 (stereo partly drawn) [Example 50, 8-(5-{7-[(2S)-2-(Hydroxymethyl)pyrrolidin-1-yl]-6,7,8,9-tetrahydro-5H-benzo[7]annulen-2-yl}-1H-pyrazolo[3,4-b]pyridin-3-yl)-2,3,4,5-tetrahydro-1,4-benzoxazepin-5-one] | < 100 nM | < 100 nM
CC(C)(O)C(=O)N1CCc2ccc(-c3cnc4[nH]nc(-c5ccc6c(c5)OCCNC6=O)c4c3)cc2CC1 [Example 19, 8-(5-(3-(2-Hydroxy-2-methylpropanoyl)-2,3,4,5-tetrahydro-1H-benzo[d]azepin-7-yl)-1H-pyrazolo[3,4-b]pyridin-3-yl)-3,4-dihydrobenzo[f][1,4]oxazepin-5(2H)-one] | < 100 nM | < 100 nM
COCCN1CCc2cc(-c3cnc4[nH]nc(-c5ccc6c(c5)OCCNC6=O)c4c3)ccc2C1 [Example 13, 8-(5-(2-(2-Methoxyethyl)-1,2,3,4-tetrahydroisoquinolin-6-yl)-1H-pyrazolo[3,4-b]pyridin-3-yl)-3,4-dihydrobenzo[f][1,4]oxazepin-5(2H)-one] | < 100 nM | < 100 nM
Cc1cc2c(cc1-c1cnc3[nH]nc(-c4ccc5c(c4)OCCNC5=O)c3c1)CCC(N1CCC[C@H]1C)CC2 (stereo partly drawn) [Example 64, 8-(5-{3-Methyl-7-[(2R)-2-methylpyrrolidin-1-yl]-6,7,8,9-tetrahydro-5H-benzo[7]annulen-2-yl}-1H-pyrazolo[3,4-b]pyridin-3-yl)-2,3,4,5-tetrahydro-1,4-benzoxazepin-5-one] | < 100 nM | < 100 nM
C[C@@H]1CCCN1C1CCc2ccc(-c3cnc4[nH]nc(-c5ccc6c(c5)OCC5(CCC5)NC6=O)c4c3)cc2CC1 (stereo partly drawn) [Example 37, 8-(5-{7-[(2R)-2-Methylpyrrolidin-1-yl]-6,7,8,9-tetrahydro-5H-benzo[7]annulen-2-yl}-1H-pyrazolo[3,4-b]pyridin-3-yl)-4,5-dihydro-2H-spiro[1,4-benzoxazepine-3,1′-cyclobutan]-5-one] | < 100 nM | < 100 nM
CC(C)C(=O)N1CCc2ccc(-c3cnc4[nH]nc(-c5ccc6c(c5)OCCNC6=O)c4c3)cc2CC1 [Example 16, 8-{5-[3-(2-Methylpropanoyl)-2,3,4,5-tetrahydro-1H-3-benzazepin-7-yl]-1H-pyrazolo[3,4-b]pyridin-3-yl}-2,3,4,5-tetrahydro-1,4-benzoxazepin-5-one] | < 100 nM | < 100 nM
C[C@@H]1CCCN1C1CCc2ccc(-c3cnc4[nH]nc(-c5ccc6c(c5)OCCNC6=O)c4c3)cc2CC1 (stereo partly drawn) [Example 44, 8-(5-{7-[(2R)-2-Methylpyrrolidin-1-yl]-6,7,8,9-tetrahydro-5H-benzo[7]annulen-2-yl}-1H-pyrazolo[3,4-b]pyridin-3-yl)-2,3,4,5-tetrahydro-1,4-benzoxazepin-5-one] | < 100 nM | < 100 nM
C[C@@H]1CCCN1C1CCc2ccc(-c3cnc4[nH]nc(-c5ccc6c(c5)S(=O)(=O)NC6(C)C)c4c3)cc2CC1 (stereo partly drawn) [Example 33, 3,3-Dimethyl-6-(5-{7-[(2R)-2-methylpyrrolidin-1-yl]-6,7,8,9-tetrahydro-5H-benzo[7]annulen-2-yl}-1H-pyrazolo[3,4-b]pyridin-3-yl)-2,3-dihydro-1λ^6,2-benzothiazole-1,1-dione] | < 100 nM | < 100 nM
O=C1NCCOc2cc(-c3n[nH]c4ncc(-c5ccc6c(c5)CCC(N5CCCC5)CC6)cc34)ccc21 (racemic) [Example 1, 8-{5-[7-(Pyrrolidin-1-yl)-6,7,8,9-tetrahydro-5H-benzo[7]annulen-2-yl]-1H-pyrazolo[3,4-b]pyridin-3-yl}-2,3,4,5-tetrahydro-1,4-benzoxazepin-5-one] | < 100 nM | < 100 nM
CC1(O)CCc2cc(-c3n[nH]c4ncc(-c5ccc6c(c5)CC[C@@H](N5CCCC5)CC6)cc34)ccc21 (stereo partly drawn) [Example 30, 1-Methyl-5-{5-[(7S)-7-(pyrrolidin-1-yl)-6,7,8,9-tetrahydro-5H-benzo[7]annulen-2-yl]-1H-pyrazolo[3,4-b]pyridin-3-yl}-2,3-dihydro-1H-inden-1-ol] | < 100 nM | < 100 nM
COCCN1CCc2ccc(-c3cnc4[nH]nc(-c5ccc6c(c5)OCCNC6=O)c4c3)cc2CC1 [Example 15, 8-(5-(3-(2-Methoxyethyl)-2,3,4,5-tetrahydro-1H-benzo[d]azepin-7-yl)-1H-pyrazolo[3,4-b]pyridin-3-yl)-3,4-dihydrobenzo[f][1,4]oxazepin-5(2H)-one] | < 100 nM | < 100 nM
C[C@@H]1CCCN1C1CCc2ccc(-c3cnc4[nH]nc(-c5ccc6c(c5)O[C@@H](C)CNC6=O)c4c3)cc2CC1 (stereo partly drawn) [Example 62, (2S)-2-Methyl-8-(5-{7-[(2R)-2-methylpyrrolidin-1-yl]-6,7,8,9-tetrahydro-5H-benzo[7]annulen-2-yl}-1H-pyrazolo[3,4-b]pyridin-3-yl)-2,3,4,5-tetrahydro-1,4-benzoxazepin-5-one] | < 100 nM | < 100 nM
O=C1NCCOc2cc(-c3n[nH]c4ncc(-c5ccc6c(c5)CCC(N5CCC[C@@H]5CO)CC6)cc34)ccc21 (stereo partly drawn) [Example 49, 8-(5-{7-[(2R)-2-(Hydroxymethyl)pyrrolidin-1-yl]-6,7,8,9-tetrahydro-5H-benzo[7]annulen-2-yl}-1H-pyrazolo[3,4-b]pyridin-3-yl)-2,3,4,5-tetrahydro-1,4-benzoxazepin-5-one] | < 100 nM | < 100 nM
